Results taken from US8846115B2, “Anti-inflammatory cyclooxygenase inhibitors” (Metaproteomics, LLC, priority 2001, dated 2014).
Like-named read-outs stand apart in the source and are kept apart here.

iso-alpha acids
Solubility (aqueous solution that can be made) (pH 7.5): 20 % aqueous solution | Solubility (aqueous solution that can be made) (pH 9): 30 % aqueous solution
